Laboratory results taken from ChEMBL document CHEMBL4425184, “C15-methoxyphenylated 18-deoxy-herbimycin A analogues, their in vitro anticancer activity and heat shock protein 90 binding affinity” (Bioorg Med Chem Lett, 2016).

Key:
MCF7 = test: Antiproliferative activity against human MCF7 assessed as reduction in cell viability measured after 96 hrs by MTT assay; assay type: functional, cell-based; settings: MCF7, 96 h
A-375 = test: Antiproliferative activity against human A375 assessed as reduction in cell viability measured after 96 hrs by MTT assay; assay type: functional, cell-based; settings: A-375, 96 h
HCT-116 = test: Antiproliferative activity against human HCT116 assessed as reduction in cell viability measured after 96 hrs by MTT assay; assay type: functional, cell-based; settings: HCT-116, 96 h
A2780 = test: Antiproliferative activity against human A2780 assessed as reduction in cell viability measured after 96 hrs by MTT assay; assay type: functional, cell-based; settings: A2780, 96 h
[1] = target: T1, Heat shock protein HSP 90-alpha (Homo sapiens, UniProt P07900); test: Displacement of fluorescent labelled-VER00051001 from N-terminal ATP-binding site of human recombinant HSP90A expressed in Escherichia coli measured after 29 hrs by fluorescence polarization assay
[2] = target: T1, Heat shock protein HSP 90-alpha; test: Displacement of fluorescent labelled-VER00051001 from N-terminal ATP-binding site of human recombinant HSP90A expressed in Escherichia coli measured after 20 hrs by fluorescence polarization assay
[3] = target: T1, Heat shock protein HSP 90-alpha; test: Displacement of fluorescent labelled-VER00051001 from N-terminal ATP-binding site of human recombinant HSP90A expressed in Escherichia coli measured after 32 hrs by fluorescence polarization assay
[4] = target: T1, Heat shock protein HSP 90-alpha; test: Displacement of fluorescent labelled-VER00051001 from N-terminal ATP-binding site of human recombinant HSP90A expressed in Escherichia coli measured after 48 hrs by fluorescence polarization assay
[5] = target: T1, Heat shock protein HSP 90-alpha; test: Displacement of fluorescent labelled-VER00051001 from N-terminal ATP-binding site of human recombinant HSP90A expressed in Escherichia coli measured after 44 hrs by fluorescence polarization assay
BGC-823 = test: Antiproliferative activity against human BGC823 assessed as reduction in cell viability measured after 96 hrs by MTT assay; assay type: functional, cell-based; settings: BGC-823, 96 h
SW1990 = test: Antiproliferative activity against human SW1990 assessed as reduction in cell viability measured after 96 hrs by MTT assay; assay type: functional, cell-based; settings: SW1990, 96 h

COc1ccc([C@H]2c3cccc(c3O)NC(=O)/C(C)=C/C=C\[C@H](OC)[C@@H](OC(N)=O)/C(C)=C/[C@H](C)[C@@H](OC)[C@@H](OC)C[C@@H]2C)cc1
IC50 (MCF7): 9580 nM
IC50 (A-375): 2560 nM
IC50 (HCT-116): 6340 nM
IC50 (A2780): 2380 nM
IC50 [1]: 102 nM
IC50 [2]: 119 nM
IC50 [3]: 101 nM
IC50 [4]: 97.1 nM
IC50 [5]: 98.5 nM
IC50 (BGC-823): 6470 nM
IC50 (SW1990): 3370 nM

COc1ccc([C@H]2c3cccc(c3O)NC(=O)/C(C)=C/C=C\[C@H](OC)[C@@H](OC(N)=O)/C(C)=C/[C@H](C)[C@@H](O)[C@@H](OC)C[C@@H]2C)cc1
IC50 (MCF7): 450 nM
IC50 (A-375): 450 nM
IC50 (HCT-116): 440 nM
IC50 (A2780): 470 nM
IC50 [1]: 59.4 nM
IC50 [2]: 64.5 nM
IC50 [3]: 55.8 nM
IC50 [4]: 53 nM
IC50 [5]: 56.7 nM
IC50 (BGC-823): 630 nM
IC50 (SW1990): 800 nM

COc1ccc([C@H]2c3cccc(c3O)NC(=O)/C(C)=C/CC[C@H](OC)[C@@H](OC(N)=O)/C(C)=C/[C@H](C)[C@@H](O)[C@@H](OC)C[C@@H]2C)cc1
IC50 (MCF7): > 20000 nM
IC50 (A-375): > 20000 nM
IC50 (HCT-116): > 20000 nM
IC50 (A2780): > 20000 nM
IC50 [1]: > 1000 nM
IC50 [2]: > 1000 nM
IC50 [3]: > 1000 nM
IC50 [4]: > 1000 nM
IC50 [5]: > 1000 nM
IC50 (BGC-823): > 20000 nM
IC50 (SW1990): > 20000 nM

CO[C@H]1/C=C\C=C(/C)C(=O)NC2=CC(=O)C=C(C2=O)[C@H](OC)[C@@H](C)C[C@H](OC)[C@H](O)[C@@H](C)/C=C(\C)[C@@H]1OC(N)=O [HERBIMYCIN C]
IC50 (MCF7): 5070 nM
IC50 (A-375): 2430 nM
IC50 (HCT-116): 9390 nM
IC50 (A2780): 3010 nM
IC50 [1]: 19.7 nM
IC50 [2]: 22.2 nM
IC50 [3]: 18.4 nM
IC50 [4]: 16.8 nM
IC50 [5]: 18.1 nM
IC50 (BGC-823): 3990 nM
IC50 (SW1990): 8620 nM

COc1ccc([C@H]2c3cccc(c3O)NC(=O)/C(C)=C/CC[C@H](OC)[C@@H](OC(N)=O)/C(C)=C/[C@H](C)[C@@H](OC)[C@@H](OC)C[C@@H]2C)cc1
IC50 (MCF7): > 20000 nM
IC50 (A-375): > 20000 nM
IC50 (HCT-116): > 20000 nM
IC50 (A2780): > 20000 nM
IC50 [1]: > 1000 nM
IC50 [2]: > 1000 nM
IC50 [3]: > 1000 nM
IC50 [4]: > 1000 nM
IC50 [5]: > 1000 nM
IC50 (BGC-823): > 20000 nM
IC50 (SW1990): > 20000 nM
